Consider 6 compounds from PubChem BioAssay AID1259407 (Chemical Carcinogenesis Research Information System (CCRIS), 2018).

The source made the active and inactive calls. The rule behind the calls is not given here.

The data set concerns CCRIS mutagenicity, Ames/micronucleus/aberration tests. In words: CCRIS mutagenicity studies.
Where [1] appears, read: Test System: AMES SALMONELLA TYPHIMURIUM, Strain/Indicator: TA98, Metabolic Activation: NONE, Method: STANDARD PLATE.
The mark [2] stands for this setting: Test System: AMES SALMONELLA TYPHIMURIUM, Strain/Indicator: TA100, Metabolic Activation: NONE, Method: STANDARD PLATE.
[3] abbreviates: Test System: AMES SALMONELLA TYPHIMURIUM, Strain/Indicator: TA1535, Metabolic Activation: NONE, Method: STANDARD PLATE.

In the case of `C[C@@H]1O[C@H](C)[C@@H](O)[C@H](O)[C@@H]1OS(=O)(=O)O`, the mutagenic call under setting [1] was “inactive; negative”; the mutagenic call (Test System: AMES SALMONELLA TYPHIMURIUM, Strain/Indicator: TA98, Metabolic Activation: S-9, Method: STANDARD PLATE) is “inactive; negative”; the mutagenic call under setting [2] is “inactive; negative”; the mutagenic call (Test System: AMES SALMONELLA TYPHIMURIUM, Strain/Indicator: TA100, Metabolic Activation: S-9, Method: STANDARD PLATE) was “inactive; negative”; the mutagenic call under setting [3] was “inactive; negative”; the mutagenic call (Test System: AMES SALMONELLA TYPHIMURIUM, Strain/Indicator: TA1535, Metabolic Activation: S-9, Method: STANDARD PLATE) was “inactive; negative”. The mutagenic call (Test System: AMES SALMONELLA TYPHIMURIUM, Strain/Indicator: TA1537, Metabolic Activation: NONE, Method: STANDARD PLATE) was “inactive; negative”; the mutagenic call (Test System: AMES SALMONELLA TYPHIMURIUM, Strain/Indicator: TA1537, Metabolic Activation: S-9, Method: STANDARD PLATE) was “inactive; negative”; the mutagenic call (Test System: E. COLI, Strain/Indicator: WP2 UVRA, Metabolic Activation: NONE, Method: STANDARD PLATE) is “inactive; negative”; the mutagenic call (Test System: E. COLI, Strain/Indicator: WP2 UVRA, Metabolic Activation: S-9, Method: STANDARD PLATE) was “inactive; negative”.

For `Cc1cc2ccccc2c2cc3c(cc12)C=C[C@H](O)[C@H]3O`, the mutagenic call (Test System: AMES SALMONELLA TYPHIMURIUM, Strain/Indicator: TA100, Metabolic Activation: RAT, LIVER, S-9, AROCLOR 1254, Method: PREINCUBATION) is “active; positive”.

In the case of `NC1CCC(N)CC1` (stereo not drawn), the mutagenic call is “inactive; negative” (Test System: AMES SALMONELLA TYPHIMURIUM, Strain/Indicator: TA97, Metabolic Activation: NONE, Method: STANDARD PLATE); “inactive; negative” (Test System: AMES SALMONELLA TYPHIMURIUM, Strain/Indicator: TA97, Metabolic Activation: RAT, LIVER, S-9, Method: STANDARD PLATE); “inactive; negative” under setting [1]; “inactive; negative” (Test System: AMES SALMONELLA TYPHIMURIUM, Strain/Indicator: TA98, Metabolic Activation: RAT, LIVER, S-9, Method: STANDARD PLATE); “inactive; negative” under setting [2]; “inactive; negative” (Test System: AMES SALMONELLA TYPHIMURIUM, Strain/Indicator: TA100, Metabolic Activation: RAT, LIVER, S-9, Method: STANDARD PLATE). The mutagenic call reads like this: under setting [3], “inactive; negative”; (Test System: AMES SALMONELLA TYPHIMURIUM, Strain/Indicator: TA1535, Metabolic Activation: RAT, LIVER, S-9, Method: STANDARD PLATE) “inactive; negative”.

Take `C=COC(=O)C=C`: the mutagenic call runs as follows: (Test System: AMES SALMONELLA TYPHIMURIUM, Strain/Indicator: TA102, Metabolic Activation: RAT, LIVER, S-9, PHENOBARBITAL AND 5,6-BENZOFLAVONE, Method: STANDARD PLATE) “inactive; negative”; (Test System: AMES SALMONELLA TYPHIMURIUM, Strain/Indicator: TA2638, Metabolic Activation: RAT, LIVER, S-9, PHENOBARBITAL AND 5,6-BENZOFLAVONE, Method: STANDARD PLATE) “inactive; negative”; (Test System: E. COLI, Strain/Indicator: WP2 (PKM101), Metabolic Activation: RAT, LIVER, S-9, PHENOBARBITAL AND 5,6-BENZOFLAVONE, Method: STANDARD PLATE) “inactive; negative”; (Test System: E. COLI, Strain/Indicator: WP2 UVRA (PKM101), Metabolic Activation: RAT, LIVER, S-9, PHENOBARBITAL AND 5,6-BENZOFLAVONE, Method: STANDARD PLATE) “inactive; negative”.

Regarding `NC1CCCCC1`, the mutagenic call by setting is: (Test System: CHINESE HAMSTER OVARY, Strain/Indicator: CHO-K1-BH4 (HGPRT), Metabolic Activation: NONE, Method: STANDARD PLATE) “inactive; negative”; (Test System: CHINESE HAMSTER OVARY, Strain/Indicator: CHO-K1-BH4 (HGPRT), Metabolic Activation: RAT, LIVER, S-9, Method: STANDARD PLATE) “inactive; negative”; (Test System: UDS RODENT HEPATOCYTES, Strain/Indicator: THY INCORP (NON-S-PHASE), Metabolic Activation: NONE, Method: AUTORADIOGRAPHY) “inactive; negative”.

For the compound `Cc1nc2ccc3ccc4ccc(O)cc4c3c2o1`, the mutagenic call reads like this: (Test System: AMES SALMONELLA TYPHIMURIUM, Strain/Indicator: TA98, Metabolic Activation: RAT, LIVER, S-9, AROCLOR 1254, Method: STANDARD PLATE) “active; positive”; (Test System: AMES SALMONELLA TYPHIMURIUM, Strain/Indicator: TA98, Metabolic Activation: RAT, LIVER, S-9, AROCLOR, Method: STANDARD PLATE) “active; positive”.
